Data set [1] deals with T1, Kinesin-like protein KIF11 (Homo sapiens) (UniProt P52732).
T1 sequence (whole entry): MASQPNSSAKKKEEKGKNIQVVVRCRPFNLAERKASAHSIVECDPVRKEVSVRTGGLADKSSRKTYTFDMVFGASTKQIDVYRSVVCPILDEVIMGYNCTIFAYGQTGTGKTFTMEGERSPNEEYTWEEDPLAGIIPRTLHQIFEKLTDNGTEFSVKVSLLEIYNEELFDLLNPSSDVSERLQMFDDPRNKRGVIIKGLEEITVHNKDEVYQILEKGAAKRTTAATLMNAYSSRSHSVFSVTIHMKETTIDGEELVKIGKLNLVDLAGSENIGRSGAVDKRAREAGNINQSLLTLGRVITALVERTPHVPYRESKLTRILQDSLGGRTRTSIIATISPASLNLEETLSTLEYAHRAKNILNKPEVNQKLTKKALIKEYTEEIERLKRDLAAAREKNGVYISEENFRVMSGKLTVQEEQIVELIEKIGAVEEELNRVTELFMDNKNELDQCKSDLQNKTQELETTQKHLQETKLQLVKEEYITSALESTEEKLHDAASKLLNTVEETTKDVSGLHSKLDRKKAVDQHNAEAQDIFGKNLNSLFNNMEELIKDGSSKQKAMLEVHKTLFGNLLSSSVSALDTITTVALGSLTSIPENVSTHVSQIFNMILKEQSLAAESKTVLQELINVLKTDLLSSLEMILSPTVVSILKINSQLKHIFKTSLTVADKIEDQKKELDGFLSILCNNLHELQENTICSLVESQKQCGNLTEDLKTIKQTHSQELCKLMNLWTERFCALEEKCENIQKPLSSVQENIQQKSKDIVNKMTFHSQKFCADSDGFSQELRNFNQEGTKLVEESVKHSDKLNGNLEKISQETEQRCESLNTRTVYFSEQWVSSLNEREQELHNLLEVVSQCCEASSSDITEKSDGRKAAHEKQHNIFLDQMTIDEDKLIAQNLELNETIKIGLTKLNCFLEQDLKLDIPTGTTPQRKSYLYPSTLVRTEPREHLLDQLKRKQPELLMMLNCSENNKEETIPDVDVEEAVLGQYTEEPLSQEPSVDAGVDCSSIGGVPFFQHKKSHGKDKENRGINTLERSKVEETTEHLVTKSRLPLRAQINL
Description: Inhibition of kinasin spindle protein in human HeLa cells assessed as inhibition of induction of mitotic arrest. Format: cell-based.

In data set [2] the target is T1, Kinesin-like protein KIF11 (Homo sapiens). The data set can be described thus: Inhibition of kinasin spindle protein by ATPase assay.
Data set [3] can be described thus: Toxicity in african green monkey BSC1 cells at 100 uM. Format: cell-based. Particulars: chlorocebus aethiops, bsc-1, 100 µM.
A further data set relates to HeLa. Description: Toxicity in human HeLa cells at 100 uM. Format: cell-based.

The results in this text go back to ChEMBL document CHEMBL1177819, “Monastrol analogs: a synthesis of pyrazolopyridine, benzopyranopyrazolopyridine, and oxygen-bridged azolopyrimidine derivatives and their biological screening” (Bioorg Med Chem Lett, 2010).

Active and inactive are the calls of the source. The rule behind the calls is not given here.

As to `Cc1cc2n(n1)[C@H]1C[C@@](C)(N2)Oc2ccccc21`, the inhibition result in data set [1] and in data set [2] was “inactive” each time.
`C[C@@]12C[C@@H](c3ccccc3O1)n1c(nc3ccccc31)N2`: the Activity entry (in data set [3]; with HeLa) was “Toxic” each time. Besides, the inhibition entry in data set [1] and in data set [2] was “inactive” in each case.
Take `C[C@@]12C[C@@H](c3ccccc3O1)N1CCSC1=N2`: the inhibition entry in data set [1] and in data set [2] was “inactive” in each case.
On to `CC1=C2C(=O)Oc3ccccc3C2c2c(n[nH]c2C)N1` (centres undefined), for which the inhibition result in data set [1] and in data set [2] was “inactive” throughout.
In the case of `C[C@@]12C[C@@H](c3ccccc3O1)n1nnnc1N2`, the inhibition entry in data set [1] and in data set [2] was “inactive” each time.
For the compound `COC(=O)C1=C(C)Nc2n[nH]c(C)c2C1c1cccc(O)c1` (centres undefined), the inhibition result in data set [1] and in data set [2] was “inactive” each time.
